Tested on: cardiac organoids (from hESC3 NKX2.5-eGFP)
Type: cell-based, human
Description: The process was performed for steps a) to n) as described with reference to FIG. 1. Incubation under cell culture conditions was in a 5% CO2 atmosphere at 37° C., using ultra-low attachment 96 well microtiter plates, Nunclon Sphera 96U-well plate available from Thermo Fisher Scientific, as the first vessels. The PSC were the human embryonic stem cell line hESC3 NKX2.5-eGFP. These exemplary PSC were genetically manipulated to express enhanced green fluorescent protein (eGFP) as a reporter under the control of the early cardiomyocyte-specific marker NKX2.5 to indicate early cardiomyocyte differentiation.
These PSC were cultivated on cell culture flasks (preferably Geltrex-coated) in E8 medium and detached from the flasks to provide the PSC in suspension. In step a), 5000 PSC suspended in 100 μL of the first medium, which was E8 medium (DMEM/F12, L-ascorbic acid-2-phosphate magnesium (64 mg/L), sodium selenium (14 μg/L), FGF2 (100 μg/L), insulin (19.4 mg/L), NaHCO3 (543 mg/L) and transferrin (10.7 mg/L), TGFβ1 (2 μg/L) or NODAL (100 μg/L), osmolarity adjusted to 340 mOsm at pH7.4) supplemented with 10 μM ROCK inhibitor (Y-27632, catalogue No. 72302, Stemcell Technologies)), were carefully dispensed into wells of the microtiter plate. Centrifugation of step b) was twice for 3 min at 300× g with the centrifuge cooled to 4° C. The centrifuged first vessels each contained one agglomerate on the U-shaped bottom and were carefully placed into a cell culture incubator in order to avoid disturbance of the cells localized at the U-shaped bottom. Incubation of step c) without agitation was for 24 h, resulting in the formation of an aggregate of the cells. For embedding in Matrigel (thawed on ice, 9.7 to 10.1 mg/mL protein content) as the exemplary hydrogel, 20 μL Matrigel were positioned in each well of a microtiter plate, the wells of which forming second vessels, which plate was of the same ultra-low attachment quality as the first. […]

thickness of the myocardial ring compared to Controls (micrographs, FIG. 15): substantially thinner than in Controls
average diameter of the myocardial ring (human, 80 μg/mL): 165 μm
Structure (SMILES): O=C1CCC(N2C(=O)c3ccccc3C2=O)C(=O)N1 (stereo not drawn) [Thalidomide]
NKX2.5-eGFP-positive cells on the outer layer (micrographs, FIG. 15) (human, 80 μg/mL): absence of any NKX2.5-eGFP-positive cells on the outer layer
